According to PubChem BioAssay AID1259334 (Broad Institute, 2017):
Where “and” joins values, the source holds several entries; their conditions need not be identical. Equal values may be shown once. Calls of active or inactive are those of the source. No stated cut-off is given here; in the data, active means AC50 below about 11 µM.

Test system: B cell line, TNFa signaling counterscreen reporter
Test: TNFa signaling inhibitors in B cell line, dose response, counter-screen (AID 1259334);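 further: cells stimulated with TNFa after compound preincubation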

| SMILES | AC50 |
| --- | --- |
| COc1ccc(S(=O)(=O)Nc2ccc3c(c2)C(=O)N([C@@H](C)CO)C[C@@H](C)[C@H](CN(C)Cc2ccc(C(F)(F)F)cc2)OCCCC[C@@H](C)O3)cc1 | 8.32 µM |
| CC(C)CC#Cc1ccc([C@@H]2[C@H]3CN(C(=O)Nc4ccccc4)CCCCN3[C@H]2CO)cc1 | 6.52 µM |
| c1ccc(-c2nc(-c3ccccn3)no2)cc1 | 3.9 µM |
| N#C[C@H]1N[C@H](CO)[C@H]1c1ccc(C#CC2CCCC2)cc1 | 8.01 µM |
| Cc1ccc2c(=O)c3ccccc3n(CCCN)c2c1C | 3.28 µM |
| CC(C)C1CC(N(C)C)=CC(=S)N1 (stereo not given) | 10.7 µM |
| COC(=O)c1ccccc1-c1c2ccc(=N)cc-2oc2cc(N)ccc12 | 4.57 µM |
| C[C@@H]1CN([C@@H](C)CO)C(=O)c2c(c3ccccc3n2C)-c2ccccc2CO[C@H]1CN(C)C(=O)Nc1ccccc1C(F)(F)F | 8.9 µM |
| C[C@H](CO)N1C[C@H](C)[C@@H](CN(C)Cc2ccc(Cl)c(Cl)c2)OCCCC[C@H](C)Oc2ccc(NS(=O)(=O)c3cccs3)cc2C1=O | 8.48 µM |
| COc1c(O)cc2oc3cc(O)c(CC=C(C)C)c(O)c3c(=O)c2c1CC=C(C)C | 3.15 µM |
| CC=Cc1cc2c(c(=O)o1)C(=O)C(O)C(C)O2 (stereo not given) | 10.4 µM |
| CS(=O)(=O)c1ccc(C(=O)OCC(=O)NC(=O)C2COc3ccccc3O2)cc1[N+](=O)[O-] (stereo not given) | 5.1 µM |
| Oc1c(Cl)cc(Cl)c(Cl)c1Cc1c(O)c(Cl)cc(Cl)c1Cl | 2.69 µM |
| COc1cc(C(=O)CCN2CCC(c3ccccc3)C2)cc(OC)c1OC (stereo not given) | 4.66 µM |
| CNC(=S)NN=C(C)CCCC(C)=NNC(=S)NC | 2.47 µM |
| COc1ccc2c3c(n(C)c2c1)[C@H](CO)N(C(=O)Nc1ccc(F)cc1)CC31CCN(C(=O)c2ccc3c(c2)OCO3)CC1 | > 20 µM (inactive) |
| Cc1ccc(-c2cc(C(=O)N(C)CC(=O)Nc3ccccc3Br)c3ccccc3n2)o1 | 11.1 µM |
| CC(=O)O[C@@H]1C[C@@]2(C)[C@H](c3ccoc3)C[C@H]3O[C@]32[C@]2(C)C(=O)C(=O)C3C(C)(C)C(=O)C=C[C@]3(C)C12 (stereo not given in full) | 1.22 µM |
| C[C@H]1CN([C@@H](C)CO)C(=O)c2c(c3ccccc3n2C)-c2ccccc2CO[C@@H]1CN(C)C(=O)Nc1cccc(C(F)(F)F)c1 | 9.38 µM |
| Cc1c(CCOC(=O)CC23CC4CC(CC(C)(C4)C2)C3)sc[n+]1CC(=O)c1ccccc1 | 1.81 µM |
| N#C[C@@H]1[C@H](c2ccc(C#CC3CCCCC3)cc2)[C@@H](CO)N1C(=O)Nc1ccc(F)cc1 | > 20 µM (inactive) |
| NCCOc1ccc(C23CC4CC(CC(C4)C2)C3)cc1 | 4.61 µM |

| SMILES | AC50 |
| --- | --- |
| O=C(Nc1ccc(C(F)(F)F)cc1)N1C[C@@H]2N[C@H](C1)C2c1ccc(-c2ccccc2)cc1 (stereo not given in full) | 3.28 µM |
| COc1ccc(CN(CCC(c2ccc(F)cc2)C2CCOC(C)(C)C2)C(=O)c2ccco2)cc1 (stereo not given) | 11.3 µM |
| O=S(=O)(/C(=C\c1ccc(C(F)(F)F)cc1)c1nc2ccccc2[nH]1)c1ccccc1 | 0.497 µM |
| Cn1cnc(CCNC(=O)C[C@@H]2CC[C@@H]3[C@H](COC[C@@H](O)CN3C(=O)Nc3ccc(C(F)(F)F)cc3)O2)c1 | 9.53 µM |
| C[C@H](CO)N1C[C@H](C)[C@@H](CN(C)Cc2cccc(C(F)(F)F)c2)OCc2ccccc2-c2c(n(C)c3ccccc23)C1=O | 8.03 µM |
| COc1ccc(C#Cc2ccc([C@H]3[C@H]4CN(C(=O)c5ccncc5)CCCCN4[C@H]3CO)cc2)cc1 | 8.29 µM |
| O=C(Cc1ccccc1)N1CC[C@@H]2[C@H]1c1cc(C#Cc3cccc(F)c3)ccc1N[C@@H]2CO | 6.03 µM |
| O=C(Cc1ccccc1)N1CC[C@@H]2[C@H]1c1cc(-c3cccc(F)c3)ccc1N[C@@H]2CO | 10.7 µM |
| COc1ccc(Cl)cc1NC(=O)Nc1cc(C)nc2ccccc12 | > 20 µM (inactive) |
| O=C1C=CC2C3C(=O)N(c4ccccc4)C(=O)C3C1N2Cc1ccccc1 (stereo not given) | 1.52 µM |
| O=C(COC(=O)c1ccccc1C(=O)c1ccc(Cl)c([N+](=O)[O-])c1)NC1CC1 | 1.47 µM |
| CC1(C)C(=O)C=C[C@@]2(C)C1C[C@@H](O)[C@]1(C)C2CC[C@@]2(C)[C@H](c3ccoc3)OC(=O)[C@H]3O[C@]321 (stereo not given in full) | 11.3 µM |
| Cc1ccsc1C(=O)OCC(=O)c1cc(C)n(CC2CCCO2)c1C (stereo not given) | 0.0426 µM |
| O=C(c1ccc(Nc2nccc(-c3cc4ccccc4s3)n2)cc1)N1CCC(N2CCCC2)CC1 | 0.15 µM and 0.715 µM |
| C[C@H]1CN([C@@H](C)CO)C(=O)c2cccc(NC(=O)Nc3ccc(F)cc3)c2O[C@H]1CN(C)S(=O)(=O)c1ccc(Cl)cc1 | 5.13 µM |
| O=C1C=CC(=O)c2c(O)c(N3CCN(CCOCCO)CC3)c(Br)c(O)c21 | 1.33 µM |
| C=C1C(=O)OC2C=C(CO)C3OC3C3OC3(C)CC(OC(=O)/C(=C/C)COC(C)=O)C12 (stereo not given) | 1.67 µM |
| Cc1noc(C)c1S(=O)(=O)N(C)C[C@@H]1OCc2ccccc2-c2c(n(C)c3ccccc23)C(=O)N([C@@H](C)CO)C[C@@H]1C | 10.2 µM |
| O=C(Cn1ncc(Cl)c(Cl)c1=O)NC1CCCCC1 | 2.42 µM |
| CC(C)Cc1ccc(C(C)CC2=CCC(CN(C)C)C2=O)cc1 (stereo not given) | 2.41 µM |
| NC(=NCCCCCCN=C(N)/N=C(\N)Nc1ccc(Cl)cc1)/N=C(\N)Nc1ccc(Cl)cc1 | 10.5 µM |
| CCc1csc(N2[C@H](C#N)[C@H](c3ccc(C#Cc4ccc(F)cc4)cc3)[C@H]2CO)n1 | > 20 µM (inactive) |

| SMILES | AC50 |
| --- | --- |
| CCCCCN1C=CC(=C2C(=O)c3ccccc3C2=O)C=C1 | 0.316 µM |
| CC1CC(C)C(=O)C(C(O)CC2CC(=O)NC(=O)C2)C1 (stereo not given) | 0.115 µM |
| CCOC(=O)c1c(SCCN2CCCC2)n(-c2ccccc2)c(=S)n(-c2ccccc2)c1=O | 4.78 µM |
| O=C(C1CCOCC1)N1CC(=O)N2[C@H](C1)[C@H](c1ccc(C#CCc3ccccc3)cc1)[C@@H]2CO | 1.6 µM |
| CC[C@H]1CN2CCc3cc(OC)c(OC)cc3C2C[C@@H]1CC1NCCc2cc(OC)c(OC)cc21 (stereo not given in full) | 0.011 µM |
| CCN(CC)C(=O)c1ccc(NC(=O)Nc2ccccc2F)cc1 | 1.86 µM |
| COc1ccc(S(=O)(=O)Nc2ccc3c(c2)C(=O)N([C@@H](C)CO)C[C@@H](C)[C@@H](CN(C)Cc2ccc(C(F)(F)F)cc2)OCCCC[C@@H](C)O3)cc1 | > 20 µM (inactive) |
| C[C@H]1CN([C@@H](C)CO)C(=O)Cc2cc(NS(=O)(=O)c3cccs3)ccc2O[C@@H]1CN(C)Cc1ccc(Cl)c(Cl)c1 | 7.19 µM |
| COC(=O)C12OCC34C(CC5C(C)=C(O)C(=O)CC5(C)C3C(O)C1O)OC(=O)C(OC(=O)C=C(C)C)C24 (stereo not given) | 0.671 µM |
| COc1ccc(S(=O)(=O)Nc2ccc3c(c2)C(=O)N([C@@H](C)CO)C[C@H](C)[C@@H](CN(C)Cc2ccc(C(F)(F)F)cc2)OCCCC[C@@H](C)O3)cc1 | 7.51 µM |
| CCC(C)[C@H]1O[C@]2(CC[C@@H]1C)C[C@@H]1C[C@@H](C/C=C(\C)[C@@H](OC3C[C@H](OC)C(O[C@H]4C[C@H](OC)[C@@H](O)[C@H](C)O4)[C@H](C)O3)[C@@H](C)/C=C/C=C3\CO[C@@H]4[C@H](O)C(C)=C[C@@H](C(=O)O1)[C@]34O)O2 (stereo not given in full) | > 20 µM (inactive) |
| CC(C)Cc1ccc(C(C)/C=C2/CCC(CN3CCCCC3)C2=O)cc1 (stereo not given) | 8.62 µM |
| COc1ccc(C=Cc2ccc3ccccc3n2)c(OC)c1 | 3.48 µM |
| C=C1C(=O)C23C(O)C1CCC2C12CCCC(C)(COC(C)=O)C1C(O)C3(O)OC2 (stereo not given) | 0.507 µM |
| CC12CCC3C(CCC4(O)CC(O)CCC34C=NO)C1(O)CCC2C1=COC(=O)C1 (stereo not given) | 0.6 µM |
| CCN(CC)CCCNc1nc2ccccc2c2[nH]c3ccc(OC)cc3c12 | 2.11 µM |
| COc1ccc(S(=O)(=O)Nc2ccc3c(c2)C(=O)N([C@H](C)CO)C[C@@H](C)[C@@H](CN(C)Cc2ccc(C(F)(F)F)cc2)OCCCC[C@H](C)O3)cc1 | > 20 µM (inactive) |
| COCC(=O)N1[C@H](C#N)[C@H](c2ccc(C#Cc3ccccc3F)cc2)[C@H]1CO | 2.23 µM |
| C[C@@H]1O[C@@H](O[C@H]2C[C@@H](O)[C@]3(CO)[C@H]4[C@H](O)C[C@]5(C)[C@@H](C6COC(=O)C6)CC[C@]5(O)[C@@H]4CC[C@]3(O)C2)[C@H](O)[C@H](O)[C@H]1O (stereo not given in full) | 2.76 µM |
| N#C[C@@H]1[C@H](c2ccc(C#CC3CCCCC3)cc2)[C@H](CO)N1C(=O)Nc1ccc(F)cc1 | > 20 µM (inactive) |
| O=C1NC2C(=CC(O)C(O)C2O)c2cc3c(c(O)c21)OCO3 (stereo not given) | 0.0423 µM |
| Cc1noc(C)c1S(=O)(=O)Nc1ccc2c(c1)CC(=O)N([C@@H](C)CO)C[C@@H](C)[C@@H](CN(C)Cc1ccc(Oc3ccccc3)cc1)O2 | 7.01 µM |

| SMILES | AC50 |
| --- | --- |
| N#CC(C#N)=NNc1cccc(Cl)c1 | 9.25 µM |
| Cc1ccc(OC(=O)N(C)C[C@@H]2OCc3ccccc3-c3c(n(C)c4ccccc34)C(=O)N([C@@H](C)CO)C[C@H]2C)cc1 | 7.67 µM |
| C[C@@H]1CC=CC[C@H](c2ccc(F)cc2)NC(=O)[C@@H](Cc2ccccc2)N(C)C(=O)c2ccccc2O1 (mixture of isomers) | > 20 µM (inactive) |
| N#C[C@@H]1[C@H](c2ccc(C#CC3CCCCC3)cc2)[C@@H](CO)N1S(=O)(=O)c1ccccc1 | 7.1 µM |
| N#C[C@H]1[C@H](c2ccc(C#Cc3ccc(F)cc3)cc2)[C@@H](CO)N1C(=O)C1CCC1 | > 20 µM (inactive) |
| COC(=O)c1ccc2nc(NC(=O)C(C)(C)C)sc2c1 | 2.32 µM |
| O=C(Nc1ccc(C(F)(F)F)cc1)Nc1ccc2c(c1)[C@H]1C[C@@H](CC(=O)N3CCc4ccccc4C3)O[C@@H](CO)[C@H]1O2 | > 7 µM (inactive) |
| CCC(C)(O)C(=O)OC1C(=O)OC2CC3C(C)=CC(=O)C(O)C3(C)C3C4(O)OCC23C1C(C)C4O (stereo not given) | 0.0228 µM |
| O=C1NC2c3c(Cl)sc(Cl)c3C(=O)C2O1 (stereo not given) | 4.18 µM |
| CC[C@@]1(O)C(=O)OCc2c1cc1n(c2=O)Cc2cc3c(CN(C)C)c(O)ccc3nc2-1 | 1.01 µM |
| c1ccn2cc(-c3ccc4c(c3)OCCO4)nc2c1 | 9.69 µM |
| CC1CC(C)(C)Nc2ccc(OC(=O)c3ccco3)cc21 (stereo not given) | 2.42 µM |
| COc1ccc(/C=C\c2nc(=O)c3ccccc3o2)cc1 | 9.73 µM |
| CC1=C(C#N)c2nc(N)c(C#N)c(C)c2/C1=C\c1ccccc1 | 3.57 µM |
| N#C[C@H]1[C@H](c2ccc(-c3cccc(F)c3)cc2)[C@H](CO)N1C(=O)NC1CCCC1 | > 20 µM (inactive) |
| C[C@@H]1CN([C@@H](C)CO)C(=O)c2c(c3ccccc3n2C)-c2ccccc2CO[C@@H]1CN(C)C(=O)Nc1ccccc1C(F)(F)F | 7.57 µM |
| CC(=O)OCC12CC(OC(=O)CC(C)C)C(C)=CC1OC1C(O)C(OC(C)=O)C2(C)C12CO2 (stereo not given) | 0.00346 µM |
| CCS(=O)(=O)N1[C@H](CO)[C@@H](c2ccc(C#Cc3ccccc3F)cc2)[C@@H]1C#N | 7.11 µM |
| O=C1CC(=O)OC(c2ccc([N+](=O)[O-])cc2)O1 | 1.09 µM |
